pEC50: −log10 of the molar value.
What was measured:
Type in all cases: cell-based
[1] = molecular target: T1, Potassium channel subfamily K member 2 (Homo sapiens) (UniProt O95069); assay: Activation of K2P2.1 (unknown origin) expressed in whole HEK293T cells assessed as effect on channel currents by measuring time of return to baseline following compound washout at 20 uM by two-electrode voltage clamp assay relative to control
T1 sequence (whole entry): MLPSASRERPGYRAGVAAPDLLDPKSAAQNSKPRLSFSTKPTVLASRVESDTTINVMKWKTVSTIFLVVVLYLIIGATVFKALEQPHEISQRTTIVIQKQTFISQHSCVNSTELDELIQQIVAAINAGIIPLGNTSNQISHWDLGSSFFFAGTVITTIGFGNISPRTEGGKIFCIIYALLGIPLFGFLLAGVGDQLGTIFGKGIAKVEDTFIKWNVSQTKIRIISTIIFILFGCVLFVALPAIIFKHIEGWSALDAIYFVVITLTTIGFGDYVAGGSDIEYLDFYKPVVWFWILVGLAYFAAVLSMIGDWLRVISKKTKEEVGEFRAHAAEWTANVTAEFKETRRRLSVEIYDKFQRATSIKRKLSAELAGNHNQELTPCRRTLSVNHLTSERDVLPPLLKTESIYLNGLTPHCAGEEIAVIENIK

[2] = molecular target: T1, Potassium channel subfamily K member 2 (Homo sapiens); assay: Activation of K2P2.1 (unknown origin) expressed in HEK293T cell membranes in outside-out patch configuration assessed as effect on channel currents by measuring time of half-maximal activation at 20 uM by two-electrode voltage clamp assay relative to control
[3] = molecular target: T2, Potassium channel subfamily K member 4 (Homo sapiens) (UniProt Q9NYG8); assay: Activation of K2P4.1 (unknown origin) expressed in Xenopus oocytes assessed as effect on channel currents at -80 mV holding potential at 100 uM by two-electrode voltage clamp assay relative to control
T2 sequence (whole entry): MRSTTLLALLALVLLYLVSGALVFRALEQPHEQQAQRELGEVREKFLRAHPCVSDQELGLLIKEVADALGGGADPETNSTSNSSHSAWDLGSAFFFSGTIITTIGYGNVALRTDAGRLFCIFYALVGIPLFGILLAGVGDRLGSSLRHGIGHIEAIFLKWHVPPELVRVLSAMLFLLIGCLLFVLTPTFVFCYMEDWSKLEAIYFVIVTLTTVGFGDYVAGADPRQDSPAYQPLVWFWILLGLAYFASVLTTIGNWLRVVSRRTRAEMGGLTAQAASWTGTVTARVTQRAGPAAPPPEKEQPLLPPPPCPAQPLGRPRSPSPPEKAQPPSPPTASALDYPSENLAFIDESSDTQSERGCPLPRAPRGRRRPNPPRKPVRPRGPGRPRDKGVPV

[4] = tested on: Potassium channel subfamily K member 2 (Homo sapiens), O95069 [UNDEFINED MUTATION]; assay: Activation of K2P2.1 G137I mutant (unknown origin) expressed in Xenopus oocytes assessed as effect on channel currents at 150 uM at -80 mV holding potential by two-electrode voltage clamp assay relative to control
[5] = molecular target: T3, Potassium channel subfamily K member 18 (Homo sapiens) (UniProt Q7Z418); assay: Activation of K2P18.1 (unknown origin) expressed in Xenopus oocytes assessed as effect on channel currents at -80 mV holding potential by two-electrode voltage clamp assay relative to control
T3 sequence (whole entry): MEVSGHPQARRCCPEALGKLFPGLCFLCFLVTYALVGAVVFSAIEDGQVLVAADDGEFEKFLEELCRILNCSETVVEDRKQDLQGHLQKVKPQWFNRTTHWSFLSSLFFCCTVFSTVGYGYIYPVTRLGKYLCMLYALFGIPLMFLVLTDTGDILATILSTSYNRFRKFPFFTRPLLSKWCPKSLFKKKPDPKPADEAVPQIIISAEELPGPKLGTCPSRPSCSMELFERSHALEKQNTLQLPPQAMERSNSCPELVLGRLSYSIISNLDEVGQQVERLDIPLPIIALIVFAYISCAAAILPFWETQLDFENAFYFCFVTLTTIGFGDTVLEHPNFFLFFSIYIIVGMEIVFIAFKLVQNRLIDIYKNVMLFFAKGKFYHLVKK

[6] = molecular target: T1, Potassium channel subfamily K member 2 (Homo sapiens); assay: Activation of K2P2.1 (unknown origin) expressed in HEK293T cell membranes in inside-out patch configuration assessed as effect on channel currents by measuring time of half-maximal activation at 20 uM by two-electrode voltage clamp assay relative to control
[7] = molecular target: T2, Potassium channel subfamily K member 4 (Homo sapiens); assay: Activation of K2P4.1 (unknown origin) expressed in Xenopus oocytes assessed as effect on channel currents at -80 mV holding potential by two-electrode voltage clamp assay relative to control
[8] = molecular target: Potassium channel subfamily K member 3 (Homo sapiens) (UniProt O14649); assay: Activation of K2P3.1 (unknown origin) expressed in Xenopus oocytes assessed as effect on channel currents at -80 mV holding potential at 100 uM by two-electrode voltage clamp assay relative to control
Sequence of Potassium channel subfamily K member 3 (Homo sapiens) (O14649 whole entry, looked up): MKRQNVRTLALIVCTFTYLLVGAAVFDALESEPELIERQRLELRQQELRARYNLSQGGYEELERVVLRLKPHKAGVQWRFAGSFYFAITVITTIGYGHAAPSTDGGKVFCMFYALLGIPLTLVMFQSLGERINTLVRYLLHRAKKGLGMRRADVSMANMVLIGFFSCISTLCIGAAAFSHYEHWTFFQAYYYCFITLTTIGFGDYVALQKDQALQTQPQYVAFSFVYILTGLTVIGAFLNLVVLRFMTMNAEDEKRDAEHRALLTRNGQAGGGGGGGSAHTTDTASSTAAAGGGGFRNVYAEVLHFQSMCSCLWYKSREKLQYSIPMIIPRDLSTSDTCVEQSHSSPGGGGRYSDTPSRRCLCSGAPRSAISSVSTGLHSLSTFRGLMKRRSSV

[9] = molecular target: T1, Potassium channel subfamily K member 2 (Homo sapiens); assay: Activation of K2P2.1 (unknown origin) expressed in whole HEK293T cells in assessed as effect on channel currents by measuring time of half-maximal activation at 20 uM by two-electrode voltage clamp assay relative to control
[10] = molecular target: T3, Potassium channel subfamily K member 18 (Homo sapiens); assay: Activation of K2P18.1 (unknown origin) expressed in Xenopus oocytes assessed as effect on channel currents at -80 mV holding potential at 100 uM by two-electrode voltage clamp assay relative to control
[11] = molecular target: T4, Potassium channel subfamily K member 5 (Homo sapiens) (UniProt O95279); assay: Activation of K2P5.1 (unknown origin) expressed in Xenopus oocytes assessed as effect on channel currents at -80 mV holding potential by two-electrode voltage clamp assay relative to control
T4 sequence (whole entry): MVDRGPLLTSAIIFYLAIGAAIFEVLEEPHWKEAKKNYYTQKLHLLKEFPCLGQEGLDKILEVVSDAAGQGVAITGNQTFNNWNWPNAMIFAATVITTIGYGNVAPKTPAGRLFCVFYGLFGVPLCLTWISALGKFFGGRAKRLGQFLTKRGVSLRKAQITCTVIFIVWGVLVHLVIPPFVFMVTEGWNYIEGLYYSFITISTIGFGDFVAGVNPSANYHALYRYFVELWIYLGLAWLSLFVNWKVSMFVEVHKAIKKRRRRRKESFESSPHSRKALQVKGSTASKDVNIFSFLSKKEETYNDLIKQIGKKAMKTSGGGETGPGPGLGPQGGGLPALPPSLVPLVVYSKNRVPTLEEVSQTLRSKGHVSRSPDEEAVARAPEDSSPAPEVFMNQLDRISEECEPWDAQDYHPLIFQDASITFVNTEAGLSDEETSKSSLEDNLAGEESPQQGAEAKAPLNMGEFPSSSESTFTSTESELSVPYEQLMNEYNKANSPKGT

[12] = molecular target: Potassium channel subfamily K member 9 (Homo sapiens) (UniProt Q9NPC2); assay: Activation of K2P9.1 (unknown origin) expressed in Xenopus oocytes assessed as effect on channel currents at 150 uM at -80 mV holding potential by two-electrode voltage clamp assay relative to control
Sequence of Potassium channel subfamily K member 9 (Homo sapiens) (Q9NPC2 whole entry): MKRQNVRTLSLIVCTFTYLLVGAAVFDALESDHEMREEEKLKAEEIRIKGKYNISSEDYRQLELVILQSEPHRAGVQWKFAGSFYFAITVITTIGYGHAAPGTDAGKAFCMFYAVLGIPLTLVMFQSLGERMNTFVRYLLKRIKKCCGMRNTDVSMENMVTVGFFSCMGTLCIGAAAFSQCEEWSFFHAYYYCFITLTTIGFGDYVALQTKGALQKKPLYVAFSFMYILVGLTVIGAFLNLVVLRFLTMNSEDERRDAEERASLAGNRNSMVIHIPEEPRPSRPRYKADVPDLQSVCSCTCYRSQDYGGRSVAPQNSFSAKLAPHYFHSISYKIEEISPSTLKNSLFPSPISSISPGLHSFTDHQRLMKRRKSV

[13] = molecular target: Potassium channel subfamily K member 2 (Homo sapiens, UniProt O95069, W275S); assay: Activation of K2P2.1 W275S mutant (unknown origin) expressed in Xenopus oocytes assessed as effect on channel currents at -80 mV holding potential by two-electrode voltage clamp assay

T1/2 [1]: 3.9 s
T1/2 [2]: 4.6 s
Emax [3]: 14.7%
Emax [4]: 0.9
Emax [5]: 0.9
T1/2 [6]: 10.8 s
Emax [7]: 14.7
Emax [8]: 1.1%
T1/2 [9]: 4.1 s
Emax [10]: 0.9%
Emax [11]: 1.7
Emax [12]: 2.1
pEC50 [13]: 4.66
SMILES: CC1(C)c2cc(Cl)ccc2N(CCc2nnn[nH]2)c2ccc(Cl)cc21
